In general, EC50 refers to the concentration needed to bring the measured effect to its halfway point. What is called IC50 is the concentration at which inhibition is half-maximal.

Structures are written as SMILES.

For assay [1], the system named is TGFβ/SMAD Signaling Pathway SBE reporter cell line. The assay can be described thus: TGFβ reporter assay, in vitro small molecule screening (luciferase). It is filed as cell-based. The settings on record: TGFβ stimulation, luminescence. An outline of the steps: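 SBE luciferase reporter cells (~0.5×10^6 cells/mL) preincubated with compound 5-6 h at 37 °C in 0.5% FBS MEM, then stimulated with TGFβ (12 ng/mL stock) for 18 h. Luminescence read after luciferase substrate; EC50 from curve fits.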
In general terms: In a reporter assay the amount or activity of a reporter protein is the signal.

Assay [2] deals with T1, TGFBR2 (Homo sapiens, UniProt P37173).
T1 construct: purchased Reaction Biology Corp
Kind of assay: TGFBR2 RBC assay (enzyme inhibition assay, Reaction Biology Corp.). In kind it is biochemical. How it is done:
Compounds of the disclosure were also assayed by Reaction Biology Corp. using the TGFBR2 RBC assay (enzyme inhibition assay). […] NT refers to not tested.

T1 sequence (P37173 23-567): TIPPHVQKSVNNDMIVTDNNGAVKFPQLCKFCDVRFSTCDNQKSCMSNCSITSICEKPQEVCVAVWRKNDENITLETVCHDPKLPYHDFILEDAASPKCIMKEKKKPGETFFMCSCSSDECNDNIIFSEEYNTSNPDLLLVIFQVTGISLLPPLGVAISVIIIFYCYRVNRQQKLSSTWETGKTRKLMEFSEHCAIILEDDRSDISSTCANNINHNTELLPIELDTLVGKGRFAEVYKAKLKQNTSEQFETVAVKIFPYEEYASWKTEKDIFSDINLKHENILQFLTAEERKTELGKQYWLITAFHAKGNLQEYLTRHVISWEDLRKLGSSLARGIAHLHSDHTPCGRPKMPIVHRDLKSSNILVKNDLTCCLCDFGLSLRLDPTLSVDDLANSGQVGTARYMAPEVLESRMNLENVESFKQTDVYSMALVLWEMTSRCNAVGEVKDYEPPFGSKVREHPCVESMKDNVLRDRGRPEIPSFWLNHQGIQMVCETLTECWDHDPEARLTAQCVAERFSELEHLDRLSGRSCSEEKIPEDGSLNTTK

In turn, `Nc1ncc(-c2ccc(O[C@H]3CCCN(C(=O)OCc4ccccc4)C3)cc2)nc1C(=O)Nc1cnccc1N1CCOCC1` [Compound 165] registered an EC50 in assay [1] of 0.1 to 1 µM. Further, the IC50 in assay [2] lay within 0.1 to 1 µM.
In assay [1], `Nc1ncc(-c2ccc3c(c2)CCC3N)nc1C(=O)Nc1cnccc1N1CCOCC1` (stereo not shown) [Compound 220] came in with an EC50 of 0.1 to 1 µM. In assay [2], this compound displayed an IC50 of less than 0.05 µM.
Taken in the same sequence, the figures for `Nc1ncc(-c2ccc(CCNC(=O)OCc3ccccc3)cc2)nc1C(=O)Nc1cnccc1-c1ccnnc1` [Compound 48] were greater than 1 µM and less than 0.05 µM.
Taken in the same sequence, the figures for `COC(=O)c1cc(-c2cnc(N)c(C(=O)Nc3cnccc3N3CCOCC3)n2)ccc1OCCCNC(=O)OC(C)(C)C` [Compound 241] were greater than 1 µM and 0.1 to 1 µM.
The like results for `CC(C)(C)OC(=O)N1CCC[C@H]1C(=O)NCc1ccc(-c2cnc(N)c(C(=O)Nc3cnccc3N3CCOCC3)n2)cc1` [Compound 109] were, in that order, 0.1 to 1 µM and less than 0.05 µM.
The compound `Nc1ncc(-c2ccc(S(=O)(=O)N3CCNCC3)cc2)nc1C(=O)Nc1cnccc1N1CCOCC1` [Compound 62] yielded an EC50 in assay [1] of 0.05 to 0.1 µM. This compound yielded an IC50 in assay [2] of 0.1 to 1 µM.
Taken in the same sequence, the figures for `COc1cc(CCN)ccc1-c1cnc(N)c(C(=O)Nc2cnccc2N2CCOCC2)n1` [Compound 56] were 0.05 to 0.1 µM and 0.05 to 0.1 µM.
Taken in the same sequence, the figures for `Nc1ncc(-c2ccc(C[C@@H](N)CO)cc2)nc1C(=O)Nc1cnccc1N1CCOCC1` [Compound 202] were 0.1 to 1 µM and less than 0.05 µM.
Turning to `CC(C)(C)OC(=O)N1CC(Oc2ccc(-c3cnc(N)c(C(=O)Nc4cnccc4N4CCOCC4)n3)cc2)C1` [Compound 218], the EC50 in assay [1] was 0.05 to 0.1 µM. The same compound had an IC50 in assay [2] of less than 0.05 µM.
Taken in the same sequence, the figures for `Nc1ncc(Cc2ccccc2)nc1C(=O)Nc1cnccc1N1CCOCC1` [Compound 186] were greater than 1 µM and greater than 1 µM.
Taken in the same sequence, the figures for `Nc1ncc(-c2ccc(CCNC(=O)OCc3ccccc3)cc2)nc1C(=O)Nc1cnccc1-n1ccnn1` [Compound 120] were greater than 1 µM and less than 0.05 µM.
Taken in the same sequence, the figures for `CCc1nccn1-c1ccncc1NC(=O)c1nc(-c2ccc(CCNC(=O)OCc3ccccc3)cc2)cnc1N` [Compound 141] were greater than 1 µM and less than 0.05 µM.
On to `CC(C)(C)OC(=O)NCC1CCc2cc(-c3cnc(N)c(C(=O)Nc4cnccc4N4CCOCC4)n3)ccc2O1` (stereo not shown) [Compound 233], for which the EC50 in assay [1] fell in the range of 0.1 to 1 µM. The same compound had an IC50 in assay [2] of less than 0.05 µM.
The like results for `NCCCc1ccc(-c2cnc(N)c(C(=O)Nc3cnccc3N3CCOCC3)n2)cc1` [Compound 2.1, 3-Amino-6-(4-(3-aminopropyl)phenyl)-N-(4-morpholinopyridin-3-yl)pyrazine-2-carboxamide] were, in that order, 0.05 to 0.1 µM and less than 0.05 µM.
Taken in the same sequence, the figures for `CN(CCN)c1ccc(-c2cnc(N)c(C(=O)Nc3cnccc3N3CCOCC3)n2)cc1` [Compound 272] were 0.05 to 0.1 µM and less than 0.05 µM.
The like results for `CC(C)(C)OC(=O)N1CCCc2cc(-c3cnc(N)c(C(=O)Nc4cnccc4N4CCOCC4)n3)ccc2C1` [Compound 228] were, in that order, 0.1 to 1 µM and 0.05 to 0.1 µM.
In the case of `Nc1ncc(-c2ccc3c(c2)CC(O)C3)nc1C(=O)Nc1cnccc1N1CCOCC1` (stereo not shown) [Compound 248], in assay [1], the EC50 is 0.1 to 1 µM. In assay [2], this compound came in with an IC50 of less than 0.05 µM.
In assay [1], `Nc1ncc(-c2ccc(CCNC(=O)OCc3ccccc3)cc2)nc1C(=O)Nc1cnccc1N1CCSCC1` [Compound 36] gave an EC50 of 0.05 to 0.1 µM. In assay [2], this compound returned an IC50 of 0.1 to 1 µM.
Taken in the same sequence, the figures for `COC(=O)[C@H](N)CCOc1ccc(-c2cnc(N)c(C(=O)Nc3cnccc3N3CCOCC3)n2)cc1` [Compound 269] were 0.1 to 1 µM and less than 0.05 µM.
In assay [1], `CNc1ccc(-c2cnc(N)c(C(=O)Nc3cnccc3N3CCOCC3)n2)cc1` [Compound 260] returned an EC50 of less than 0.05 µM. This compound also gave an IC50 in assay [2] of less than 0.05 µM.
As to `Nc1ncc(-c2ccc(Cl)cc2Cl)nc1C(=O)Nc1cnccc1N1CCOCC1` [Compound 153], the EC50 in assay [1] was greater than 1 µM. This compound also showed an IC50 in assay [2] of 0.1 to 1 µM.
The like results for `NCCc1ccc(-c2cnc(N)c(C(=O)Nc3cnccc3-c3ccccn3)n2)cc1` [Compound 132] were, in that order, 0.1 to 1 µM and less than 0.05 µM.
Taken in the same sequence, the figures for `NCCc1cccc(-c2cnc(N)c(C(=O)Nc3cnccc3N3CCOCC3)n2)c1` [Compound 181] were 0.1 to 1 µM and less than 0.05 µM.
Taken in the same sequence, the figures for `Nc1cc(-c2ccncc2NC(=O)c2nc(-c3ccc(CCNC(=O)OCc4ccccc4)cc3)cnc2N)ccn1` [Compound 40] were greater than 1 µM and less than 0.05 µM.
In assay [1], `Nc1ncc(-c2ccc(CCNC(=O)OCc3ccccc3)cc2)nc1C(=O)Nc1cnc2ccccc2c1N1CCOCC1` [Compound 126] returned an EC50 of 0.1 to 1 µM. The compound also had an IC50 in assay [2] greater than 1 µM.
Taken in the same sequence, the figures for `Nc1ncc(-c2ccc(CCNC(=O)OCc3ccccc3)cn2)nc1C(=O)Nc1cnccc1N1CCOCC1` [Compound 116] were 0.1 to 1 µM and 0.1 to 1 µM.
Taken in the same sequence, the figures for `Nc1ncc(-c2ccc(CCNC(=O)OCc3ccccc3)cc2F)nc1C(=O)Nc1cnccc1N1CCOCC1` [Compound 50] were 0.1 to 1 µM and less than 0.05 µM.
Taken in the same sequence, the figures for `Nc1ncc(-c2ccc(CN3CCNCC3=O)cc2)nc1C(=O)Nc1cnccc1N1CCOCC1` [Compound 87] were 0.05 to 0.1 µM and less than 0.05 µM.
The compound `Nc1ncc(-c2ccc(Cl)c(Cl)c2)nc1C(=O)Nc1cnccc1N1CCOCC1` [Compound 154] returned an EC50 in assay [1] greater than 1 µM. Besides, in assay [2], the IC50 was 0.1 to 1 µM.
The like results for `NCCc1ccc(-c2cnc(N)c(C(=O)Nc3cnccc3N3CCOCC3)n2)nc1` [Compound 117] were, in that order, greater than 1 µM and 0.1 to 1 µM.
The like results for `N#Cc1ccc(-c2ccncc2NC(=O)c2nc(-c3ccc(CCNC(=O)OCc4ccccc4)cc3)cnc2N)cc1` [Compound 15] were, in that order, 0.1 to 1 µM and 0.1 to 1 µM.
Taken in the same sequence, the figures for `Nc1ncc(-c2ccc(CNC(=O)[C@@H]3CCCN3)cc2)nc1C(=O)Nc1cnccc1N1CCOCC1` [Compound 110] were 0.1 to 1 µM and less than 0.05 µM.
In the case of `Nc1ncc(-c2ccc(OCC[C@H](N)C(=O)O)cc2)nc1C(=O)Nc1cnccc1N1CCOCC1` [Compound 268], in assay [1], the EC50 is greater than 1 µM. Further, the IC50 in assay [2] was less than 0.05 µM.
The like results for `Nc1ncc(-c2ccc3c(c2)CCCN3)nc1C(=O)Nc1cnccc1N1CCOCC1` [Compound 193] were, in that order, 0.05 to 0.1 µM and less than 0.05 µM.
The like results for `Nc1ncc(-c2ccc(CCNC(=O)OCc3ccccc3)cc2)nc1C(=O)Nc1cnccc1-c1ccc(F)cc1` [Compound 20] were, in that order, greater than 1 µM and greater than 1 µM.
Taken in the same sequence, the figures for `Nc1ncc(-c2ccc(N3CCCC3)cc2)nc1C(=O)Nc1cnccc1N1CCOCC1` [Compound 262] were 0.1 to 1 µM and less than 0.05 µM.
`CC(C)(C)OC(=O)N1CCc2cc(-c3cnc(N)c(C(=O)Nc4cnccc4N4CCOCC4)n3)ccc2C1` [Compound 78]: the EC50 in assay [1] was less than 0.05 µM. For the same compound, the IC50 in assay [2] is less than 0.05 µM.
`COC(=O)[C@@H](CCOc1ccc(-c2cnc(N)c(C(=O)Nc3cnccc3N3CCOCC3)n2)cc1)NC(=O)OCc1ccccc1` [Compound 270]: the EC50 in assay [1] is 0.1 to 1 µM. Besides, the IC50 in assay [2] was less than 0.05 µM.

(Values after US20220362396A1, “AMINO-PYRAZINECARBOXAMIDE COMPOUNDS, CONJUGATES, AND USES THEREOF” (Silverback Therapeutics, Inc., priority 2018, published 2022).)
